The target of assay [1] is T1, KRAS G12C (Homo sapiens, UniProt P01116, G12C).
T1 construct: HIS-KRAS (G12C, aa 2-185, Sino biological); purchased Sino biological
The experiment in a line: SOS1 catalyzed nucleotide exchange assay (TR-FRET). The class given is biochemical. To be noted: GDP-loaded HIS-KRAS(G12C), 1 hour pre-incubation with compound. A digest of the protocol: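 EDTA-stripped, GDP-loaded His-KRAS G12C (aa 2-185; 3 nM final) preincubated 1 h with compound, then SOS1 ExD (aa 564-1049; 2 μM) and BODIPY-FL GTP (80 nM) added for 4 h at 25 °C. TR-FRET via anti-His Tb cryptate (515/486 nm ratio); IC50 from 4-parameter logistic fit.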
(In general: TR-FRET usually uses a lanthanide donor and a delayed reading to cut background.)

Assay [2] has as its system Phospho-ERK1/2(THR202/TYR204) in NCI-H358 cells express KRAS G12C. The experiment in a line: Phospho-ERK1/2(THR202/TYR204) HTRF assay. It is filed as cell-based. To be noted: Homo sapiens; NCI-H358, 2 hours incubation; read-out: p-ERK inhibition in NCI-H358 IC50. A digest of the protocol: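 Compounds applied to attached cells for 2 h at 37 °C in RPMI 1640 with 0.1% FBS. Lysate phospho-ERK1/2 detected by HTRF after 4 h antibody incubation at 25 °C; IC50 from 4-parameter logistic fit.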

The test system of assay [3] is NCI-H358 cells express KRAS G12C. As to the kind of experiment: Cell growth inhibition assay (CCK-8). The class given is cell-based. To be noted: Homo sapiens, 144 h; NCI-H358, 6 days incubation. The gist of the method:
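Antiproliferative read-out: KRAS G12C-mutant NCI-H358 lung cancer cells (3000/well) exposed to compounds in RPMI 1640 with 10% FBS for 6 days at 37°C. Viability by CCK-8 (OD450) after 1.5-2 h; IC50 from 4-parameter logistic fit.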

T1 sequence (P01116 2-185 isoform P01116-2 G12C): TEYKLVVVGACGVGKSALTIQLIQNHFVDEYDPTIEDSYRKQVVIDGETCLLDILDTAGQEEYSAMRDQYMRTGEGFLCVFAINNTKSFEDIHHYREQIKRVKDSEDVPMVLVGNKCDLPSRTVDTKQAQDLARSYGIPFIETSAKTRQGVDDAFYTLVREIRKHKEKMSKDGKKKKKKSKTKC

On to `C=C(F)C(=O)N1CCN(c2nc(OCC3(CN4CCC4)CC3)nc3c2CCN(c2cccc4cccc(C)c24)C3)CC1CC#N` (stereo not drawn) [Compound 73, 2-(4-(2-((1-(azetidin-1-ylmethyl)cyclopropyl)methoxy)-7-(8-methylnaphthalen-1-yl)-5,6,7,8-tetrahydropyrido[3,4-d]pyrimidin-4-yl)-1-(2-fluoroacryloyl)piperazin-2-yl)acetonitrile], for which the IC50 in assay [1] amounted to 0.017 µM; in assay [2], 0.963 µM; in assay [3] it was 0.883 µM.

As to `C=CC(=O)N1CCN(c2nc(OCC3(CN(C)C)CC3)nc3c2CCN(c2cccc4ccccc24)C3)CC1CC#N` (stereo not drawn) [Compound 37, 2-(1-acryloyl-4-(2-((1-((dimethylamino)methyl)cyclopropyl)methoxy)-7-(naphthalen-1-yl)-5,6,7,8-tetrahydropyrido[3,4-d]pyrimidin-4-yl)piperazin-2-yl)acetonitrile], the IC50 in assay [1] is 0.00675 µM; in assay [2] it was 0.0816 µM; in assay [3], 0.0855 µM.

As to `C=CC(=O)N1CCN(c2nc(OCC3(CN4CCN(C(C)=O)CC4)CC3)nc3c2CCN(c2cccc4cccc(C)c24)C3)CC1CC#N` (stereo not drawn) [Compound 66, 2-(4-(2-((1-((4-acetylpiperazin-1-yl)methyl)cyclopropyl)methoxy)-7-(8-methylnaphthalen-1-yl)-5,6,7,8-tetrahydropyrido[3,4-d]pyrimidin-4-yl)-1-acryloylpiperazin-2-yl)acetonitrile], the IC50 in assay [1] worked out at 0.00146 µM; in assay [2], 0.0136 µM; in assay [3] it was 0.0251 µM.

`C=CC(=O)N1CCN(c2nc(OCC3(CN4CCCC4)CC3)nc3c2CCN(c2cccc4ccccc24)C3)CC1CC#N` (stereo not drawn) [Compound 4, 2-(1-acryloyl-4-(7-(naphthalen-1-yl)-2-((1-(pyrrolidin-1-ylmethyl)cyclopropyl)methoxy)-5,6,7,8-tetrahydropyrido[3,4-d]pyrimidin-4-yl)piperazin-2-yl)acetonitrile]: the 50% inhibitory concentration (IC50) in assay [1] amounted to 0.0189 µM; in assay [2] it was 0.0977 µM; in assay [3], 0.0933 µM.

As for `C=CC(=O)N1CCN(c2nc(OCC3(CN(C)C)CC3)nc3c2CCN(c2cccc4cccc(Cl)c24)C3)CC1CC#N` (stereo not drawn) [Compound 46, 2-(1-acryloyl-4-(7-(8-chloronaphthalen-1-yl)-2-((1-((dimethylamino)methyl)cyclopropyl)methoxy)-5,6,7,8-tetrahydropyrido[3,4-d]pyrimidin-4-yl)piperazin-2-yl)acetonitrile], the half-maximal inhibitory concentration (IC50) in assay [1] amounted to 0.00257 µM; in assay [2], 0.0147 µM; in assay [3], 0.0269 µM.

For the molecule `C=CC(=O)N1CCN(c2nc(OCC3CCC(N(C)C)C3)nc3c2CCN(c2cccc4ccccc24)C3)CC1CC#N` (stereo not drawn) [Compound 17, 2-(1-acryloyl-4-(2-((3-(dimethylamino)cyclopentyl)methoxy)-7-(naphthalen-1-yl)-5,6,7,8-tetrahydropyrido[3,4-d]pyrimidin-4-yl)piperazin-2-yl)acetonitrile], the IC50 in assay [1] was 0.0836 µM; in assay [2], 0.312 µM; in assay [3] it was 0.299 µM.

Regarding `C=CC(=O)N1CCN(c2nc(OCC3CC(N(C)C)C3)nc3c2CCN(c2cccc4ccccc24)C3)CC1CC#N` (stereo not drawn) [Compound 8, 2-(1-acryloyl-4-(2-((3-(dimethylamino)cyclobutyl)methoxy)-7-(naphthalen-1-yl)-5,6,7,8-tetrahydropyrido[3,4-d]pyrimidin-4-yl)piperazin-2-yl)acetonitrile], the IC50 in assay [1] was determined as 0.408 µM; in assay [2], 0.769 µM; in assay [3], 3.47 µM.

With `C=CC(=O)N1CCN(c2nc(OCC3(N(C)C)CC3)nc3c2CCN(c2cccc4ccccc24)C3)CC1CC#N` (stereo not drawn) [Compound 12, 2-(1-acryloyl-4-(2-((1-(dimethylamino)cyclopropyl)methoxy)-7-(naphthalen-1-yl)-5,6,7,8-tetrahydropyrido[3,4-d]pyrimidin-4-yl)piperazin-2-yl)acetonitrile], the IC50 in assay [1] amounted to 0.176 µM; in assay [2] it was 0.518 µM; in assay [3], 0.645 µM.

Take `C=CC(=O)N1CCN(c2nc(OCC3(CN4CC[C@H](N(C)C)C4)CC3)nc3c2CCN(c2cccc4cccc(C)c24)C3)CC1CC#N` (stereo partly drawn) [Compound 65, 2-(1-acryloyl-4-(2-((1-(((S)-3-(dimethylamino)pyrrolidin-1-yl)methyl)cyclopropyl)methoxy)-7-(8-methylnaphthalen-1-yl)-5,6,7,8-tetrahydropyrido[3,4-d]pyrimidin-4-yl)piperazin-2-yl)acetonitrile]: the IC50 worked out at 0.00146 µM in assay [1], 0.0878 µM in assay [2] and 0.0328 µM in assay [3].

As for `Cc1cccc2cccc(N3CCc4c(nc(OCC5(CN(C)C)CC5)nc4N4CCN(C(=O)/C=C/CN(C)C)C(CC#N)C4)C3)c12` (stereo not drawn) [Compound 85, (E)-2-(1-(4-(dimethylamino)but-2-enoyl)-4-(2-((1-((dimethylamino)methyl)cyclopropyl)methoxy)-7-(8-methylnaphthalen-1-yl)-5,6,7,8-tetrahydropyrido[3,4-d]pyrimidin-4-yl)piperazin-2-yl)acetonitrile], the IC50 was 0.00286 µM in assay [1], 0.153 µM in assay [2] and 0.132 µM in assay [3].

For `C=CC(=O)N1CCN(c2nc(OCC3(CN4CCN(C)CC4)CC3)nc3c2CCN(c2cccc4cccc(C)c24)C3)CC1CC#N` (stereo not drawn) [Compound 58, 2-(1-acryloyl-4-(7-(8-methylnaphthalen-1-yl)-2-((1-((4-methylpiperazin-1-yl)methyl)cyclopropyl)methoxy)-5,6,7,8-tetrahydropyrido[3,4-d]pyrimidin-4-yl)piperazin-2-yl)acetonitrile], the IC50 in assay [1] amounted to 0.00147 µM; in assay [2], 0.0443 µM; in assay [3] it was 0.0369 µM.

As to `C=CC(=O)N1CCN(c2nc(OCC3(CN4CC[C@@H](F)C4)CC3)nc3c2CCN(c2cccc4cccc(C)c24)C3)CC1CC#N` (stereo partly drawn) [Compound 49, 2-(1-acryloyl-4-(2-((1-(((R)-3-fluoropyrrolidin-1-yl)methyl)cyclopropyl)methoxy)-7-(8-methylnaphthalen-1-yl)-5,6,7,8-tetrahydropyrido[3,4-d]pyrimidin-4-yl)piperazin-2-yl)acetonitrile], the IC50 in assay [1] turned out to be 0.00312 µM; in assay [2] it was 0.0384 µM; in assay [3] it was 0.0642 µM.

Regarding `C=CC(=O)N1CCN(c2nc(OCC3(CN4CC(N(C)C)C4)CC3)nc3c2CCN(c2cccc4cccc(C)c24)C3)CC1CC#N` (stereo not drawn) [Compound 59, 2-(1-acryloyl-4-(2-((1-((3-(dimethylamino)azetidin-1-yl)methyl)cyclopropyl)methoxy)-7-(8-methylnaphthalen-1-yl)-5,6,7,8-tetrahydropyrido[3,4-d]pyrimidin-4-yl)piperazin-2-yl)acetonitrile], the IC50 in assay [1] was 0.00111 µM; in assay [2], 0.0573 µM; in assay [3] it was 0.0619 µM.

As to `C=CC(=O)N1CCN(c2nc(OCC3(CN4CCCC4)CCC3)nc3c2CCN(c2cccc4cccc(C)c24)C3)CC1CC#N` (stereo not drawn) [Compound 45, 2-(1-acryloyl-4-(7-(8-methylnaphthalen-1-yl)-2-((1-(pyrrolidin-1-ylmethyl)cyclobutyl)methoxy)-5,6,7,8-tetrahydropyrido[3,4-d]pyrimidin-4-yl)piperazin-2-yl)acetonitrile], the results for the half-maximal inhibitory concentration (IC50) in assay [1], in assay [2] and in assay [3] were 0.0133 µM, 0.216 µM and 0.59 µM, respectively.

For the molecule `C=CC(=O)N1CCN(c2nc(OCC3CCCC3N(C)C)nc3c2CCN(c2cccc4ccccc24)C3)CC1CC#N` (stereo not drawn) [Compound 14, 2-(1-acryloyl-4-(2-((2-(dimethylamino)cyclopentyl)methoxy)-7-(naphthalen-1-yl)-5,6,7,8-tetrahydropyrido[3,4-d]pyrimidin-4-yl)piperazin-2-yl)acetonitrile], the IC50 in assay [1] was 0.0541 µM; in assay [2], 0.234 µM; in assay [3], 0.217 µM.

For `C=CC(=O)N1CCN(c2nc(OCC3(C(=O)N4CCN(C)CC4)CC3)nc3c2CCN(c2cccc4cccc(C)c24)C3)CC1CC#N` (stereo not drawn) [Compound 63, 2-(1-acryloyl-4-(7-(8-methylnaphthalen-1-yl)-2-((1-(4-methylpiperazine-1-carbonyl)cyclopropyl)methoxy)-5,6,7,8-tetrahydropyrido[3,4-d]pyrimidin-4-yl)piperazin-2-yl)acetonitrile], the IC50 in assay [1] came out at 0.0309 µM; in assay [2], 0.533 µM; in assay [3] it was 0.861 µM.

Regarding `C=CC(=O)N1CCN(c2nc(OCC3(CN(C)C)CC3)nc3c2CCN(c2cccc4ccsc24)C3)CC1CC#N` (stereo not drawn) [Compound 50, 2-(1-acryloyl-4-(7-(benzo[b]thiophen-7-yl)-2-((1-((dimethylamino)methyl)cyclopropyl)methoxy)-5,6,7,8-tetrahydropyrido[3,4-d]pyrimidin-4-yl)piperazin-2-yl)acetonitrile], the figures for the half-maximal inhibitory concentration (IC50) in assay [1], in assay [2] and in assay [3] were 0.00866 µM, 0.0838 µM and 0.202 µM, respectively.

With `C=CC(=O)N1CCN(c2nc(OCC3(CN4CCCC4)CC3)nc3c2CCN(c2cccc(Cl)c2C(F)(F)F)C3)CC1CC#N` (stereo not drawn) [Compound 38, 2-(1-acryloyl-4-(7-(3-chloro-2-(trifluoromethyl)phenyl)-2-((1-(pyrrolidin-1-ylmethyl)cyclopropyl)methoxy)-5,6,7,8-tetrahydropyrido[3,4-d]pyrimidin-4-yl)piperazin-2-yl)acetonitrile], the IC50 was 0.00524 µM in assay [1], 0.066 µM in assay [2] and 0.0602 µM in assay [3].

As a reminder, the IC50 is the point on the concentration scale where inhibition reaches its midpoint.
